Experimental data as given in BigSolDB 2.1.

CC(C)C[C@H](CN)CC(=O)O
solubility (mole fraction)
Details	in acetonitrile	in ethanol	in ethyl acetate	in isobutanol	in isopropanol	in methanol	in n-butanol	in n-propanol
278.15 K	0.000572	0.00115	0.00164	0.00126	9.1e-05	0.00112	0.00093	0.00109
283.15 K	0.000624	0.00149	0.00195	0.00136	0.000125	0.00153	0.00152	0.00144
288.15 K	0.000695	0.00188	0.00237	0.00146	0.000163	0.00198	0.00213	0.00185
293.15 K	0.00076	0.00235	0.00271	0.00159	0.000214	0.00242	0.00282	0.00241
298.15 K	0.000821	0.00272	0.00331	0.00173	0.000253	0.00273	0.00354	0.00277
303.15 K	0.000885	0.00321	0.00374	0.00184	0.000281	0.0033	0.00416	0.0032
308.15 K	0.000931	0.00369	0.00429	0.00194	0.000314	0.00399	0.00487	0.00368
313.15 K	0.000988	0.00424	0.00488	0.002	0.000362	0.00465	0.00551	0.00412
318.15 K	0.00106	0.00501	0.00547	0.00209	0.000419	0.00542	0.00619	0.00466
323.15 K	0.00113	0.00575	0.00589	0.00219	0.000461	0.00602	0.00677	0.00501
328.15 K	0.00118	0.00634	0.00631	0.00226	0.000513	0.00671	0.00731	0.00542
333.15 K	0.00123	0.00711	0.00674	0.00234	0.000585	0.00753	0.00793	0.00603
